Test results as given in patent US20100105746A1, “METHOD FOR TREATING METABOLIC DISEASES” (priority 2008, published 2010).

Legend:
[1] = Multiplex bioanalytics profiling of plasma lipids in drug-dosed rats (Example 1); format: in vivo, rat; details: 7 days
Description: Multiplex bioanalytics profiling can elucidate novel pharmacological actions of drugs via measurement of hundreds of disease-relevant biomolecules in biofluids collected from drug-dosed animals. Romazarit was evaluated via a full multiplex bioanalytics profiling study.
In an initial experiment, two dose groups of six animals per group received either 5 or 50 mg/kg b.i.d., and a further group received vehicle only, as a control. A follow-up experiment was performed to explore dose-response and the selected doses were 15 and 50 mg/kg b.i.d., again plus control.
In both experiments, urine was collected from each animal by clean-catch after the final dose on day 7, and cerebrospinal fluid (CSF) and plasma were collected (terminal samples) on day 8. Aliquots of the CSF and plasma samples from each individual were submitted for LC-MS analyses of bioanalytes. Three different separation methods were run, with MS analyses in both positive and negative ion modes, to enable resolution of relative quantification of the bioanalytes. These methods included: • RP-I: LC-MS of polar and non-polar abundant lipids (e.g., individual cholesterol esters, triglycerides, diacylglycerols, phospholipids, lysophospholipids); • RP-II: LC-MS of lower abundance bioanalytes (e.g., eicosanoids & other lipid mediators, fatty acids, oxidized fatty acids, bile acids, conjugated bile acids); • PLR: LC-MS of polar compounds (e.g., catecholamines & serotonin pathway, amino acids, organic acids, sugars).

[2] = Diabetic-prone (db/db) mouse model with high-fat diet (Example 7); format: in vivo; details: db/db mice, high-fat diet, 15, 50 and 100 mg/kg once daily
Description: The fibrate PPARα agonist fenofibrate (50 mg/kg) and the PPARγ agonist rosiglitazone (10 mg/kg) were used as reference controls for the study.

[3] = Oral glucose tolerance test (OGTT) in rats with diet-induced obesity (Example 5); format: in vivo, rat; details: for Glucose concentration maximum / Glucose concentration excursion (baseline to maximum): OGTT day 21, DIO rats; for Time to maximum (glucose concentration): OGTT day 21, dextrose 2 g/kg, DIO rats
Description: As part of the study described in Example 4, an oral glucose tolerance test (OGTT) was performed on day 21 of the dosing period, after a 2-4 hour fast. Dextrose (2 g/kg) was administered by oral gavage. Blood for glucose analysis was collected at 0, 15, 30, 60, 120 and 180 minutes after dextrose administration. At each time point, 0.25 ml whole blood was collected in EDTA, processed to plasma, and analyzed for blood glucose with a low-volume glucose kit.

[4] = Metabolic parameters / indicators of insulin sensitivity in normal rats (Example 9); format: in vivo, rat
Excerpt: Male Sprague-Dawley rats were provided normal chow ad libitum, both before and during the study period. […] Six rats were assigned to each treatment group (8 to the vehicle control). The study terminated on the day following administration of the seventh dose (day 8), with terminal blood collected for plasma lipid and lipoprotein analyses including LC-MS-based determination of lipid profiles, total and free cholesterol analyses, and lipoprotein cholesterol determinations (VLDL, LDL and HDL).
Adiponectin is an insulin-sensitizing protein that is abundantly expressed in adipocytes and is secreted into the circulation (see review by Lara-Castro et al. (2007) cited above).

[5] = target: T1, human PPARα (Homo sapiens, UniProt Q07869); assay: PPARRE-luciferase reporter in HepG2 cells transfected with human PPARα; format: cell-based; details: retinoic acid 200 nM, read-out: EC50 activation of human PPARα (hPPARα)
T1 construct: expressed in transfected cells; host or cells: HepG2
T1 sequence (Q07869 1-468): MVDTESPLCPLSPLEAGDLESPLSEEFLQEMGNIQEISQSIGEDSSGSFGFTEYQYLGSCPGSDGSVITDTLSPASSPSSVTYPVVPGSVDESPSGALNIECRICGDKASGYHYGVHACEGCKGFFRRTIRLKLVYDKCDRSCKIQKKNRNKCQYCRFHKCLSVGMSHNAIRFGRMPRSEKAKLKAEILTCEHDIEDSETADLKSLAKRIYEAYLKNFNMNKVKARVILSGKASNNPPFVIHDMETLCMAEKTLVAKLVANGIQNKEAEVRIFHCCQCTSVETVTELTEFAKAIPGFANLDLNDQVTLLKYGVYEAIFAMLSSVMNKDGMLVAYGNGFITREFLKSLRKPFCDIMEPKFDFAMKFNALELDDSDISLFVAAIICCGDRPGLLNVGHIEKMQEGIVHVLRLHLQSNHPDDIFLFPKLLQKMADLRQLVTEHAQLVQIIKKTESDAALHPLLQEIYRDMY
Description: For this study, a luciferase reporter plasmid containing 5 copies of a defined genetic regulatory PPARα response element (PPARRE) was utilized to detect romazarit-induced PPARRE activation in presence of a co-activator, retinoic acid. Specifically, HepG2 cells were transfected with expression vectors for either human or rat PPARα and the PPARRE-luciferase reporter plasmid. After 24 hours, the cells were trypsanized and subsequently seeded in 96-well clear-bottom plates at a density of 1.0×10^5 cells/ml.

[6] = 50 mg/kg b.i.d. p.o., second experiment

- EC50 [5]: ~200 µM
Structure (SMILES): Cc1nc(-c2ccc(Cl)cc2)oc1COC(C)(C)C(=O)O [romazarit, 2-[[2-(4-chlorophenyl)-4-methyl-5-oxazolyl]methoxy]-2-methylpropanoic acid]
- plasma triglycerides ([1]; 5 mg/kg b.i.d. p.o., initial experiment): also apparent
- plasma triglycerides ([1]; 15 mg/kg b.i.d. p.o., second experiment): lowered plasma triglycerides to a degree that was intermediate
- plasma triglycerides ([1]; 50 mg/kg b.i.d. p.o., initial experiment): highly pronounced
- plasma cholesterol esters [1, 6]: generally similar to those seen with the same dose in the initial experiment
- plasma triglycerides [1, 6]: generally similar to those seen with the same dose in the initial experiment
- plasma cholesterol esters ([1]; 5 and 50 mg/kg b.i.d. p.o., initial experiment): increased
- HDL [2]: did not significantly affect
- total cholesterol [2]: did not significantly affect
- total plasma triglycerides [2]: tendency likewise to reduce total plasma triglycerides at higher doses
- weight gain [2]: None of the romazarit or fenofibrate treatments reduced weight gain
- whole blood glucose levels [2]: no such effect was seen
- Glucose concentration maximum ([3]; 15 mg/kg): 230.1 mg/dL
- Glucose concentration excursion (baseline to maximum) ([3]; 50 mg/kg): 61.1 mg/dL
- Glucose concentration maximum ([3]; 50 mg/kg): 203.3 mg/dL
- Glucose concentration excursion (baseline to maximum) ([3]; 100 mg/kg): 42.7 mg/dL
- Glucose concentration maximum ([3]; 100 mg/kg): 185.1 mg/dL
- Time to maximum (glucose concentration) ([3]; 15 mg/kg): 15 min
- Time to maximum (glucose concentration) ([3]; 50 mg/kg): 15 min
- Time to maximum (glucose concentration) ([3]; 100 mg/kg): 60 min
- glucose in plasma ([4]; once daily p.o. 7 days): appeared to lower
- insulin in plasma ([4]; once daily p.o. 7 days): appeared to lower
- plasma glucagon ([4]; once daily p.o. 7 days): lowered
- plasma adiponectin ([4]; once daily p.o. 7 days, 10, 50 and 100 mg/kg): dose-dependently increased
